# Source: patent US10844077B2, “Thiazolyl-containing compounds for treating proliferative diseases” (Dana-Farber Cancer Institute, Inc., priority 2014, dated 2020)
# “And” between values parts separate entries of the source, which are not always exact repeats. Equal entries are not always repeated. Where two headings read alike, the source gives them in different places.
# Tests used:
# Format in all cases: cell-based
# kinases in BCWM.1 cells [1] = target: kinases in BCWM.1 cells (Homo sapiens, UniProt P09769); test: KINATIV assay of compounds I-3 and I-9, lysate directly labeled with ATP-biotin probe (no GF); settings: FGR; Activation Loop; 1 μM; no GF
# Description: (§1) The cells were harvested and lysed. […] Bound kinases were identified and quantitated by ACTIVX as described in Patricelli et al., Biochemistry, 2007, 46(2): 350-358. The compounds were tested in duplicates against duplicate or quadruplicate control samples.
# kinases in BCWM.1 cells [2] = target: kinases in BCWM.1 cells (Homo sapiens, UniProt P52333); test: as above; settings: JAK3 domain2; Activation Loop; 1 μM; no GF
# Description: as §1
# kinases in BCWM.1 cells [3] = target: kinases in BCWM.1 cells (Homo sapiens, UniProt Q13418); test: as above; settings: ILK; Protein Kinase Domain; 1 μM; no GF
# Description: as §1
# kinases in BCWM.1 cells [4] = target: kinases in BCWM.1 cells (Homo sapiens, UniProt P29323); test: as above; settings: EphB2; Activation Loop; 1 μM; no GF
# Description: as §1
# kinases in BCWM.1 cells [5] = target: kinases in BCWM.1 cells (Homo sapiens, UniProt O14757); test: as above; settings: CHK1; Lys2; 1 μM; no GF
# Description: as §1
# kinases in BCWM.1 cells [6] = target: T1, kinases in BCWM.1 cells (Homo sapiens, UniProt O75582); test: as above; settings: MSK1 domain1; Lys2; 1 μM; no GF
# Description: as §1
# kinases in BCWM.1 cells [7] = target: kinases in BCWM.1 cells (Homo sapiens, UniProt Q8NB16); test: as above; settings: MLKL; Lys1; 1 μM; no GF
# Description: as §1
# kinases in BCWM.1 cells [8] = target: kinases in BCWM.1 cells (Homo sapiens, UniProt P00533); test: as above; settings: EGFR; Lys1; 1 μM; no GF
# Description: as §1
# kinases in BCWM.1 cells [9] = target: kinases in BCWM.1 cells (Homo sapiens, UniProt Q13188); test: as above; settings: MST2; Lys1; 1 μM; no GF
# Description: as §1
# kinases in BCWM.1 cells [10] = target: kinases in BCWM.1 cells (Homo sapiens, UniProt P54762); test: as above; settings: EphB1; Activation Loop; 1 μM; no GF
# Description: as §1
# kinases in BCWM.1 cells [11] = target: kinases in BCWM.1 cells (Homo sapiens, UniProt Q13315); test: as above; settings: ATM; ATP; 1 μM; no GF
# Description: as §1
# kinases in BCWM.1 cells [12] = target: kinases in BCWM.1 cells (Homo sapiens, UniProt Q5TCX8); test: as above; settings: MLK4; Lys2; 1 μM; no GF
# Description: as §1
# kinases in BCWM.1 cells [13] = target: kinases in BCWM.1 cells (Homo sapiens, UniProt P06239); test: as above; settings: LCK; Activation Loop; 1 μM; no GF
# Description: as §1
# kinases in BCWM.1 cells [14] = target: kinases in BCWM.1 cells (Homo sapiens, UniProt P31749); test: as above; settings: AKT1; ATP Loop; 1 μM; no GF
# Description: as §1
# kinases in BCWM.1 cells [15] = target: kinases in BCWM.1 cells (Homo sapiens, UniProt P24941); test: as above; settings: CDK2; Lys2; 1 μM; no GF
# Description: as §1
# kinases in BCWM.1 cells [16] = target: kinases in BCWM.1 cells (Homo sapiens, UniProt Q13572); test: as above; settings: ITPK1; ATP; 1 μM; no GF
# Description: as §1
# kinases in BCWM.1 cells [17] = target: kinases in BCWM.1 cells (Homo sapiens, UniProt P49840); test: as above; settings: GSK3A; Lys2; 1 μM; no GF
# Description: as §1
# kinases in BCWM.1 cells [18] = target: T2, kinases in BCWM.1 cells (Homo sapiens, UniProt O00418); test: as above; settings: eEF2K; ATP; 1 μM; no GF
# Description: as §1
# kinases in BCWM.1 cells [19] = target: kinases in BCWM.1 cells (Homo sapiens, UniProt P50613); test: as above; settings: CDK7; Lys2; 1 μM; no GF
# Description: as §1
# kinases in BCWM.1 cells [20] = target: kinases in BCWM.1 cells (Homo sapiens, UniProt Q00534); test: as above; settings: CDK6; Lys2; 1 μM; no GF
# Description: as §1
# kinases in BCWM.1 cells [21] = target: kinases in BCWM.1 cells (Homo sapiens, UniProt P51451); test: as above; settings: BLK; Activation Loop; 1 μM; no GF
# Description: as §1
# kinases in BCWM.1 cells [22] = target: kinases in BCWM.1 cells (Homo sapiens, UniProt P78356); test: as above; settings: PIP4K2B; ATP; 1 μM, 90 min; no GF
# Description: as §1
# kinases in BCWM.1 cells [23] = target: kinases in BCWM.1 cells (Homo sapiens, UniProt P17612); test: as above; settings: PKACa; Lys2; 1 μM, 90 min; no GF
# Description: as §1
# kinases in BCWM.1 cells [24] = target: kinases in BCWM.1 cells (Homo sapiens, UniProt P51956); test: as above; settings: NEK3; Activation Loop; 1 μM, 90 min; no GF
# Description: as §1
# kinases in BCWM.1 cells [25] = target: kinases in BCWM.1 cells (Homo sapiens, UniProt P49761); settings: CLK3; ATP Loop; 1 μM; GF
# Description: as §1
# kinases in BCWM.1 cells [26] = target: kinases in BCWM.1 cells (Homo sapiens, UniProt O14936); settings: CASK; Lys1; 1 μM; GF
# Description: as §1
# kinases in BCWM.1 cells [27] = target: kinases in BCWM.1 cells (Homo sapiens, UniProt Q00536)
# Description: as §1
# kinases in BCWM.1 cells [28] = target: kinases in BCWM.1 cells (Homo sapiens, UniProt Q15831); settings: LKB1; Lys2; 1 μM; GF
# Description: as §1
# kinases in BCWM.1 cells [29] = target: T1, kinases in BCWM.1 cells; settings: MSK1 domain1; Lys2; 1 μM; GF
# Description: as §1
# kinases in BCWM.1 cells [30] = target: T2, kinases in BCWM.1 cells; settings: eEF2K; ATP; 1 μM; GF
# Description: as §1
# T2 sequence (O00418 2-725 limits assumed): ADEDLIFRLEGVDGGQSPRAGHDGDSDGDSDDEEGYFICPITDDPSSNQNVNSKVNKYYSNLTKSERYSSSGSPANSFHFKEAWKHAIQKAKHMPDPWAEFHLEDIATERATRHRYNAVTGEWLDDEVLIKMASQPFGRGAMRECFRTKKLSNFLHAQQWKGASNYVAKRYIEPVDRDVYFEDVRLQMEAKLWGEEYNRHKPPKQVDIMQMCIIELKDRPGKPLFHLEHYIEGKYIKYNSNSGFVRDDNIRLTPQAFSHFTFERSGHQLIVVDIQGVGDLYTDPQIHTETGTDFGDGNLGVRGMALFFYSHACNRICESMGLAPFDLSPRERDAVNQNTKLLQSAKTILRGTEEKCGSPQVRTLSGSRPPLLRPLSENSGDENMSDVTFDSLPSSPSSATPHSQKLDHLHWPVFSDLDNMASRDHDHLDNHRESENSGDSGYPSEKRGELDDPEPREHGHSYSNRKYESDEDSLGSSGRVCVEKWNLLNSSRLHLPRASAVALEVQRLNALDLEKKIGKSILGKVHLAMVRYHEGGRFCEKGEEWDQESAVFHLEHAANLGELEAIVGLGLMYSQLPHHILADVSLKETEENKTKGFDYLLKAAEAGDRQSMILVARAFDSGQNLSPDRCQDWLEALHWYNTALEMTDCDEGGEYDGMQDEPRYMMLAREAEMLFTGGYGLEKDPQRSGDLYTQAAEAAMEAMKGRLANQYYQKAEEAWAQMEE
# Sequence of kinases in BCWM.1 cells (Homo sapiens, UniProt P50613) (P50613 2-346 limits assumed): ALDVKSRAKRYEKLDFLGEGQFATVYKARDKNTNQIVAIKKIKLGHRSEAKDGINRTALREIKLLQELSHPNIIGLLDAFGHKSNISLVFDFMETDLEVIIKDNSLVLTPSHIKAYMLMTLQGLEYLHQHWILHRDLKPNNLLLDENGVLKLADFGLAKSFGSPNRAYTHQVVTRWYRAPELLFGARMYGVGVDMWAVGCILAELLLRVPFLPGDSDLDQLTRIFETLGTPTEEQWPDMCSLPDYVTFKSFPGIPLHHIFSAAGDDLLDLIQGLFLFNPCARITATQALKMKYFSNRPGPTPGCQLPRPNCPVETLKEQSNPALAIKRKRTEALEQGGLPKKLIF
# Sequence of kinases in BCWM.1 cells (Homo sapiens, UniProt P49840) (P49840 2-483 limits assumed): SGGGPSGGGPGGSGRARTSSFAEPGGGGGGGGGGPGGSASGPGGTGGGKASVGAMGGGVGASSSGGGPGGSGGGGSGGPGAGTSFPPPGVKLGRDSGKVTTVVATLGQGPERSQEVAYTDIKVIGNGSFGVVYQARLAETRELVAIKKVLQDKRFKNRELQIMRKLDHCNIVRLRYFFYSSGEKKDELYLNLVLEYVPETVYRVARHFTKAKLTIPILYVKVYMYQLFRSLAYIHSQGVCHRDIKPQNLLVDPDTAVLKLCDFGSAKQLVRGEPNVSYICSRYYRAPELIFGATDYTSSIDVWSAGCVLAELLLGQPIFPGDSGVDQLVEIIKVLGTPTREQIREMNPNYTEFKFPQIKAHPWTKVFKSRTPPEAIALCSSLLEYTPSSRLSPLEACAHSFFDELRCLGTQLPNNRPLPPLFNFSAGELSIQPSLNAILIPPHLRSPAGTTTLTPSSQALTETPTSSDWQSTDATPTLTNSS
# Sequence of kinases in BCWM.1 cells (Homo sapiens, UniProt Q13315) (Q13315 2-3056 limits assumed): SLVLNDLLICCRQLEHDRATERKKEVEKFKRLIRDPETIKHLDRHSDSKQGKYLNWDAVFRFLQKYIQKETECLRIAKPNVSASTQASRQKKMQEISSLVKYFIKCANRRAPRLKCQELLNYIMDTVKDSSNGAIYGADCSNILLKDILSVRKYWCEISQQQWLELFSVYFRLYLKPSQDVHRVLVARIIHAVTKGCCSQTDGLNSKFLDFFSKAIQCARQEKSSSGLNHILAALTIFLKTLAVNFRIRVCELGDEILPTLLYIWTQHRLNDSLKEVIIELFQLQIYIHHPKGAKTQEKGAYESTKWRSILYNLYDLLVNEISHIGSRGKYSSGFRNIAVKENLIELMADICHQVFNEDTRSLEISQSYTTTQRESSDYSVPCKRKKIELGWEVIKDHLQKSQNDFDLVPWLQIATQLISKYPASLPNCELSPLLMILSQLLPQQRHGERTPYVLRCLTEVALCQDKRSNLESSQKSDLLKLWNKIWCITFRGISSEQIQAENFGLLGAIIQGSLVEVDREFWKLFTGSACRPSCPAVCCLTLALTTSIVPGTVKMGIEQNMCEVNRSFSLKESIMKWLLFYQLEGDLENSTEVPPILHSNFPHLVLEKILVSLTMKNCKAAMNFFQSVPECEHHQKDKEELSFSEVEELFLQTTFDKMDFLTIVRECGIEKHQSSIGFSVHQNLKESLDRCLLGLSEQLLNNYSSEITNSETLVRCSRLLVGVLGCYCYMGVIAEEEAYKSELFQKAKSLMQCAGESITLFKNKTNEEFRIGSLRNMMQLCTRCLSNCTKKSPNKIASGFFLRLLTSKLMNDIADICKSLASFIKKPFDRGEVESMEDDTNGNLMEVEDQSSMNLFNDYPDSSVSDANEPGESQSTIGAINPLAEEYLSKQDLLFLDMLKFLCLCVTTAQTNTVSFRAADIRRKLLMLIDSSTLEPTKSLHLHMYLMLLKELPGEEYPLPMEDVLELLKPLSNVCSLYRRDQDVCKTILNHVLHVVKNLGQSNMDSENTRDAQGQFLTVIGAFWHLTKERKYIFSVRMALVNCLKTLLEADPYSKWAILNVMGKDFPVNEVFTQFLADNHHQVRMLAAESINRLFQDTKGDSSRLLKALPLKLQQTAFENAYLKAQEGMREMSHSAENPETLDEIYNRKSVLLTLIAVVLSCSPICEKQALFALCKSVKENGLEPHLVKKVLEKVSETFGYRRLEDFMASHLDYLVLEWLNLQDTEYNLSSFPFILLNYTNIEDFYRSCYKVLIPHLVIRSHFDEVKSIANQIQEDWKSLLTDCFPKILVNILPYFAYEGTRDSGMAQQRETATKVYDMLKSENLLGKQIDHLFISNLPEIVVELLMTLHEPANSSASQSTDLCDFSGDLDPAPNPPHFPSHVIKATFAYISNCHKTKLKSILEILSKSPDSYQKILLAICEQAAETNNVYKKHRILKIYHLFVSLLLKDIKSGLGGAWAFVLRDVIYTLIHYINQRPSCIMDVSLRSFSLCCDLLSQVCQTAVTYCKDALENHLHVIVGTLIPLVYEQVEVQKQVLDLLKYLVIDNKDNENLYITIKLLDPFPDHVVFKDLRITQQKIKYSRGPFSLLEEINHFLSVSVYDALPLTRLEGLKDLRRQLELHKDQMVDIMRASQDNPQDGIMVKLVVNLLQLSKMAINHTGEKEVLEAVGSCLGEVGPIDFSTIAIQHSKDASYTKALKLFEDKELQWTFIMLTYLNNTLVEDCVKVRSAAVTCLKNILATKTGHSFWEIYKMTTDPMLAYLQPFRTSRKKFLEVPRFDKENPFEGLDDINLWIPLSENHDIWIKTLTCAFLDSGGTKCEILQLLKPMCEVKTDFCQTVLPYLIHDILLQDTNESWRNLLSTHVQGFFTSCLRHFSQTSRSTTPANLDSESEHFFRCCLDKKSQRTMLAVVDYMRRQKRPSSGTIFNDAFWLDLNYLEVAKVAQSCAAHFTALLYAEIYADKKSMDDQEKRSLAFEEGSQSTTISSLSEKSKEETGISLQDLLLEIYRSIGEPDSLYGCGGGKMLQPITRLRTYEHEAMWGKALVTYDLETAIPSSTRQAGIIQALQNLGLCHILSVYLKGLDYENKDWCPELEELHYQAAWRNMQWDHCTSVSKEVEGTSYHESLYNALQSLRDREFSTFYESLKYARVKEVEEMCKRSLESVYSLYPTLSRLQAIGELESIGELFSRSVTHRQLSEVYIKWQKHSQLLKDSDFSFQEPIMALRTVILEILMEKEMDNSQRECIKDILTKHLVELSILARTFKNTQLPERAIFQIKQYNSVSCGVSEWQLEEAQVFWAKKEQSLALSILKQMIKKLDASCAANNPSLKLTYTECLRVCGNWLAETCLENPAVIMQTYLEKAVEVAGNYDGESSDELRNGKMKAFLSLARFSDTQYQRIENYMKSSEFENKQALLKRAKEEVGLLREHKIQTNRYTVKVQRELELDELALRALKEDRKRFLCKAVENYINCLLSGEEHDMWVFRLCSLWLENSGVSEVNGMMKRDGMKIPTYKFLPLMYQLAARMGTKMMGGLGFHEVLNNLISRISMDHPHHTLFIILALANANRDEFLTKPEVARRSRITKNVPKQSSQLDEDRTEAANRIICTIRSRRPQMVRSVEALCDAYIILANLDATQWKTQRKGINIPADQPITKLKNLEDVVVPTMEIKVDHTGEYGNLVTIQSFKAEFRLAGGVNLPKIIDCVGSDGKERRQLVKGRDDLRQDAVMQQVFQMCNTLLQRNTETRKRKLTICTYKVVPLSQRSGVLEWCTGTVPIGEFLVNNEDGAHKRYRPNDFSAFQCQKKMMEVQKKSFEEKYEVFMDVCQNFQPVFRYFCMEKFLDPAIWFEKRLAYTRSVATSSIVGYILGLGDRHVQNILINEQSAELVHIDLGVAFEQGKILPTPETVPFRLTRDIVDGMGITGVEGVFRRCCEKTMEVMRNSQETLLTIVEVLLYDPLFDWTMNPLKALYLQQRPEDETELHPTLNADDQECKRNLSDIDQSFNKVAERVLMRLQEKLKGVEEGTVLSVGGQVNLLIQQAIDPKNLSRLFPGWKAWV
# Sequence of kinases in BCWM.1 cells (Homo sapiens, UniProt P06239) (P06239 2-509 limits assumed): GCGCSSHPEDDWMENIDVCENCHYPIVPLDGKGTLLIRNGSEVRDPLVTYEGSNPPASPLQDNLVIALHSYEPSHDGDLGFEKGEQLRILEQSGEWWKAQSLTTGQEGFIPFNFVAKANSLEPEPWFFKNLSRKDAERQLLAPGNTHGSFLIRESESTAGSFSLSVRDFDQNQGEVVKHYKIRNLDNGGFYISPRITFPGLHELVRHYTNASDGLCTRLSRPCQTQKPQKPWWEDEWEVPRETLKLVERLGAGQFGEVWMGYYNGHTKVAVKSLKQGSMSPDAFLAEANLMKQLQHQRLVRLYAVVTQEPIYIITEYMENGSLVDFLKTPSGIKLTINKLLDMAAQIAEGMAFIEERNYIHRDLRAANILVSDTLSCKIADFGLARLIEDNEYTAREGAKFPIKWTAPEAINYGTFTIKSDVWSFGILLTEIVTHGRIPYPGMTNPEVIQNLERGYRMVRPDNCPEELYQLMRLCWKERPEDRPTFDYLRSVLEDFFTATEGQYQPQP
smiles,measurement,setting,value
C=CC(=O)N1CC[C@H](Nc2nccc(Nc3ncc(C(=O)Nc4c(C)cccc4C)s3)n2)C1 [Example I-3],% change of MS signal compared to control sample,kinases in BCWM.1 cells [1],95.7% and 95.4%
same,% change of MS signal compared to control sample,kinases in BCWM.1 cells [2],−1.5% and −0.6%
same,% change of MS signal compared to control sample,kinases in BCWM.1 cells [3],3.6% and 9.7%
same,% change of MS signal compared to control sample,kinases in BCWM.1 cells [4],91% and 91.6%
same,% change of MS signal compared to control sample,kinases in BCWM.1 cells [5],9.7% and 5.6%
same,% change of MS signal compared to control sample,kinases in BCWM.1 cells [6],−2.8% and −9%
same,% change of MS signal compared to control sample,kinases in BCWM.1 cells [7],−5.6% and −4.6%
same,% change of MS signal compared to control sample,kinases in BCWM.1 cells [8],20% and 17%
same,% change of MS signal compared to control sample,kinases in BCWM.1 cells [9],−12.1% and −18%
same,% change of MS signal compared to control sample,kinases in BCWM.1 cells [10],92.9% and 95.7%
same,% change of MS signal compared to control sample,kinases in BCWM.1 cells [11],20.7% and 19.5%
same,% change of MS signal compared to control sample,kinases in BCWM.1 cells [12],−3.8% and −11.8%
same,% change of MS signal compared to control sample,kinases in BCWM.1 cells [13],92.6% and 92.7%
same,% change of MS signal compared to control sample,kinases in BCWM.1 cells [14],−20.4% and −21.9%
same,% change of MS signal compared to control sample,kinases in BCWM.1 cells [15],3.6% and 1.2%
same,% change of MS signal compared to control sample,kinases in BCWM.1 cells [16],8.5% and 1.5%
same,% change of MS signal compared to control sample,kinases in BCWM.1 cells [17],3.5% and 9%
same,% change of MS signal compared to control sample,kinases in BCWM.1 cells [18],−18.9% and −27.8%
same,% change of MS signal compared to control sample,kinases in BCWM.1 cells [19],8.9% and 5.1%
same,% change of MS signal compared to control sample,kinases in BCWM.1 cells [20],12.4% and 3.6%
same,% change of MS signal compared to control sample,kinases in BCWM.1 cells [21],>96%
CCC(=O)N1CC[C@H](Nc2nccc(Nc3ncc(C(=O)Nc4c(C)cccc4C)s3)n2)C1 [Example I-9],% change of MS signal compared to control sample,kinases in BCWM.1 cells [22],17.6%
same,% change of MS signal compared to control sample,kinases in BCWM.1 cells [23],−9.8%
same,% change of MS signal compared to control sample,kinases in BCWM.1 cells [24],−21.2%
same,% change of MS signal compared to control sample,kinases in BCWM.1 cells [25],−19% and −10.3%
same,% change of MS signal compared to control sample,kinases in BCWM.1 cells [26],−10.4%
same,% change of MS signal compared to control sample,kinases in BCWM.1 cells [27],6.5%
same,% change of MS signal compared to control sample,kinases in BCWM.1 cells [28],−11.2% and −7.4%
same,% change of MS signal compared to control sample,kinases in BCWM.1 cells [29],−22.8% and −23.9%
same,% change of MS signal compared to control sample,kinases in BCWM.1 cells [30],−51.4% and −48.7%
